Counter-ions that a name gives are not always drawn.
test system: Ramos B-Cell Line Stimulated with IL-4 (JAK-1 and JAK-3 / Stat-6, CD23); experiment: Assay for Ramos B-Cell Line Stimulated with IL-4 (CD23 upregulation, FACS); type: cell-based; settings: Homo sapiens, Ramos, human Ramos B cells, compound 1 hour, IL-4 50 units/mL for 20-24 hours, anti-CD23-PE FACS; read-out: Example 2 (IC50)
Description: One means of assaying for such inhibition is detection of the effect of the 2,4-pyrimidinediamine compounds on the upregulation of downstream gene products. In the Ramos/IL4 assay, B-cells are stimulated with the cytokine Interleukin-4 (IL-4) leading to the activation of the JAK/Stat pathway through phosphorylation of the JAK family kinases, JAK1 and JAK3, which in turn phosphorylate and activate the transcription factor Stat-6. […] To study the effect of inhibitors (e.g., the 2,4-substituted pyrimindinediamine compounds described herein) on the JAK1 and JAK3 kinases, human Ramos B cells are stimulated with human IL-4. 20 to 24 hours post stimulation, cells are stained for upregulation of CD23 and analyzed using flow cytometry (FACS).
B-cells stimulated with cytokine Interleukin-4 (IL-4) activate the JAK/Stat pathway through phosphorylation of the JAK family kinases, JAK-1 and JAK-3, which in turn phosphorylate and activate the transcription factor Stat-6. […] To study the effect of inhibitors on the JAK family kinases, human Ramos B cells were stimulated with human IL-4.
Cells were maintained at a density of 3.5×10^5. The day before the experiment, Ramos B-cells were diluted to 3.5×10^5 cells/mL to ensure that they were in a logarithmic growth phase.
Cells were spun down and suspended in RPMI with 5% serum. 5×10^4 cells were used per point in a 96-well tissue culture plate. Cells were pre-incubated with compound or DMSO (Sigma-Aldrich, St. Louis, Mo., Cat No. D2650) vehicle control for 1 hour in a 37° C. incubator. Cells were then stimulated with IL-4 (Peprotech Inc., Rocky Hill, N.J., Cat No. 200-04) for a final concentration of 50 units/mL for 20-24 hours. […] Detection was performed using a BD LSR I System Flow Cytometer, purchased from Becton Dickinson Biosciences of San Jose, Calif.

Compound | IC50
CN1CCN(C(=O)c2ccc(Nc3ncc(F)c(Nc4cccc(OCC(N)=O)c4)n3)cc2)CC1 [Compound I-48, N4-(3-Aminocarbonylmethoxyphenyl)-5-fluoro-N2-[4-((4-methylpiperazin-1-yl)carbonyl)phenyl]-2,4-pyrimidinediamine] | 913 nM
N#CCOc1ccc(Nc2nc(Nc3cccc(C(N)=O)c3)ncc2F)cc1Cl [Compound I-99, N2-(3-Aminocarbonylphenyl)-N4-(3-chloro-4-cyanomethoxyphenyl)-5-fluoro-2,4-pyrimidinediamine] | 156 nM
N#CCOc1ccc(Nc2nc(Nc3cccc(C(N)=O)c3)ncc2F)cc1F [Compound I-102, N2-(3-Aminocarbonylphenyl)-N4-(4-cyanomethoxy-3-fluorophenyl)-5-fluoro-2,4-pyrimidinediamine] | 259 nM
CCc1cc(Nc2ncc(F)c(Nc3cccc(OCC#N)c3)n2)cc(C#N)c1Cl [Compound I-105, N2-(4-Chloro-3-cyano-5-ethylphenyl)-N4-(3-cyanomethoxyphenyl)-5-fluoro-2,4-pyrimidinediamine] | 31600 nM
CC(C)OC(=O)COc1ccc(Nc2nc(Nc3ccc(C(=O)N4CCN(C)CC4)cc3)ncc2F)cc1 [Compound I-26, 5-Fluoro-N4-[4-((1-methylethoxy)carbonylmethoxy)phenyl]-N2-[4-((4-methylpiperazin-1-yl)carbonyl)phenyl]-2,4-pyrimidinediamine] | 1830 nM

Further lines, results first:

IC50 | Compound
38.4 nM | CNC(=O)c1cc(Nc2ncc(F)c(Nc3cccc(OCC#N)c3)n2)ccc1N1CCN(C)CC1 [Compound I-55, N4-(3-Cyanomethoxyphenyl)-5-fluoro-N2-[3-methylaminocarbonyl-4-(4-methylpiperazin-1-yl)phenyl]-2,4-pyrimidinediamine]
266 nM | COc1ccc(Nc2nc(Nc3cccc(C#N)c3)ncc2F)cc1Cl [Compound I-18, N4-(3-Chloro-4-methoxyphenyl)-N2-(3-cyanophenyl)-5-fluoro-2,4-pyrimidinediamine]
189 nM | N#CCc1ccc(Nc2ncc(F)c(Nc3cccc(OCC(N)=O)c3)n2)cc1 [Compound I-65, N4-(3-Aminocarbonylmethoxyphenyl)-N2-(4-cyanomethylphenyl)-5-fluoro-2,4-pyrimidinediamine]
3070 nM | NC(=O)COc1ccc(Nc2nc(Nc3cccc(C(N)=O)c3)ncc2F)cc1 [Compound I-23, N4-(4-Aminocarbonylmethoxyphenyl)-N2-(3-aminocarbonylphenyl)-5-fluoro-2,4-pyrimidinediamine]
103000 nM | N#CCc1ccc(Nc2ncc(F)c(Nc3ccc(F)c(C#N)c3)n2)cc1 [Compound I-118, N4-(3-Cyano-4-fluorophenyl)-N2-(4-cyanomethylphenyl)-5-fluoro-2,4-pyrimidinediamine]
7020 nM | CCc1cc(Nc2ncc(F)c(Nc3ccc(CC#N)cc3)n2)cc(C#N)c1Cl [Compound I-106, N2-(4-Chloro-3-cyano-5-ethylphenyl)-N4-(4-cyanomethylphenyl)-5-fluoro-2,4-pyrimidinediamine]
317 nM | COc1ccc(Nc2nc(Nc3ccc(C(=O)Nc4ccn(C)n4)cc3)ncc2F)cc1Cl [Compound I-2, N4-(3-Chloro-4-methoxyphenyl)-5-fluoro-N2-[4-((1-methyl-1H-pyrazol-3-yl)aminocarbonyl)phenyl]-2,4-pyrimidinediamine]
69.3 nM | COc1cc(Nc2ncc(F)c(Nc3ccc4c(c3)NC(=O)C(C)(C)O4)n2)cc(OCC#N)c1OC [II-15, N2-(3-Cyanomethoxy-4,5-dimethoxyphenyl)-N4-(2,2-dimethyl-3-oxo-4H-benzo[1,4]oxazin-6-yl)-5-fluoro-2,4-pyrimidinediamine]
1150 nM | N#CCc1ccc(Nc2nc(Nc3cccc(C#N)c3)ncc2F)cc1 [Compound I-70, N4-(4-Cyanomethylphenyl)-N2-(3-cyanophenyl)-5-fluoro-2,4-pyrimidinediamine]
19.1 nM | CN1CCN(c2ccc(Nc3ncc(F)c(Nc4cccc(OCC#N)c4)n3)cc2C(N)=O)CC1 [Compound I-54, N2-[3-Aminocarbonyl-4-(4-methylpiperazin-1-yl)phenyl]-N4-(3-cyanomethoxyphenyl)-5-fluoro-2,4-pyrimidinediamine]

same assay, conditions: human Ramos B cells, compound 1 hour, IL-4 50 units/mL for 20-24 hours, anti-CD23-PE FACS; read-out: Example 2 (IC50)

Compound | IC50
N4-(4-Chloro-3-methoxyphenyl)-N2-[1-(2-(N-morpholinyl)ethylaminocarbonyl)-1H-indol-6-yl]-2,4-pyrimidinediamine [VI-4] | 889 nM
Cc1noc(COc2ccc(N(C)c3nc(Nc4ccc(C(N)=O)cc4)ncc3F)cc2)n1 [Compound I-15, N2-(4-Aminocarbonylphenyl)-5-fluoro-N4-methyl-N4-[4-((3-methyl-1,2,4-oxadiazol-5-yl)methyleneoxy)phenyl]-2,4-pyrimidinediamine] | 693 nM
Cc1noc(COc2ccc(N(C)c3nc(Nc4ccc(C(N)=O)c(Cl)c4)ncc3F)cc2)n1 [Compound I-16, N2-(4-Aminocarbonyl-3-chlorophenyl)-5-fluoro-N4-methyl-N4-[4-((3-methyl-1,2,4-oxadiazol-5-yl)methyleneoxy)phenyl]-2,4-pyrimidinediamine] | 909 nM
CNC(=O)COc1cccc(Nc2ncc(F)c(Nc3ccc(Cc4ccncc4)cc3)n2)c1 [Compound I-132, 5-Fluoro-N2-[3-(N-methylaminocarbonylmethyleneoxy)phenyl]-N4-[4-(4-pyridinylmethyl)phenyl]-2,4-pyrimidinediamine] | 322 nM
Cc1noc(COc2ccc(Nc3nc(Nc4ccc(C(N)=O)cc4)ncc3F)cc2)n1 [Compound I-10, N2-(4-Aminocarbonylphenyl)-5-fluoro-N4-[4-((3-methyl-1,2,4-oxadiazol-5-yl)methyleneoxy)phenyl]-2,4-pyrimidinediamine Hydrogen Chloride Salt] | 4.85 nM
N4-(3-Chloro-4-methoxyphenyl)-N2-[1-(2-(N-morpholinyl)ethylaminocarbonyl)-1H-indol-6-yl]-2,4-pyrimidinediamine [VI-3] | 645 nM
CC(C#N)Oc1ccc(Nc2nc(Nc3ccc(C#N)cc3)ncc2F)cc1 (centres unmarked) [Compound I-79, N4-[4-(I-Cyanoethoxy)phenyl]-N2-(4-cyanophenyl)-5-fluoro-2,4-pyrimidinediamine] | 361 nM

Other lines, results leading:

IC50 | Compound
28 nM | CNC(=O)COc1cccc(Nc2ncc(F)c(Nc3ccc4c(c3)N(CC#N)C(=O)CO4)n2)c1 [II-11, N4-(4-Cyanomethyl-3-oxo-2H-benzo[1,4]oxazin-6-yl)-5-fluoro-N2-[3-(N-methylaminocarbonylmethyleneoxy)phenyl]-2,4-pyrimidinediamine]
289 nM | CN1CCN(C(=O)c2ccc(Nc3ncc(F)c(Nc4cccc(OCC#N)c4)n3)cc2)CC1 [Compound I-52, N4-(3-Cyanomethoxyphenyl)-5-fluoro-N2-[4-((4-methylpiperazin-1-yl)carbonyl)phenyl]-2,4-pyrimidinediamine]
938 nM | CNC(=O)COc1cccc(Nc2ncc(F)c(Nc3ccc4c(c3)N(Cc3ccc(OC)cc3)C(=O)C(C)S4)n2)c1 (racemic) [II-13, Racemic-5-fluoro-N2-[3-(N-methylaminocarbonylmethyleneoxy)phenyl]-N4-[2-methyl-3-oxo-4-(4-methoxybenzyl)-2H-benzo[1,4]thiazin-6-yl]-2,4-pyrimidinediamine]
95 nM | CNC(=O)COc1cc(Nc2ncc(F)c(Nc3ccc4c(c3)NC(=O)CS4)n2)cc(OC)c1OC [II-19, N2-[4,5-Dimethoxy-3-(N-methylaminocarbonylmethyleneoxy)phenyl]-5-Fluoro-N4-(3-oxo-2H,4H-benzo[1,4]thiazin-6-yl)-2,4-pyrimidinediamine]
